# Measurements reported in the supplement of paper PMC9386025.
# Columns and labels:
# Assay in all cases: drug sensitivity score (DSS) (DSS (dimensionless)); higher = more sensitive (stronger drug response)
# OVSAHO = test system: OVSAHO
# In short: (§1)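 Cells, either patient-derived cultures or ovarian cancer cell lines given 100 ng/ml doxycycline for no less than three days to induce shRNA, went into 384-well plates at 1 000 – 1 500 per well over drugs pre-plated in five concentrations across a 10,000-fold range. The plates were held for three days at 37 °C with 5.0 % CO2. Cell viability was then taken from CellTiter-Glo luminescence on a PHERAstar FS. For each drug, a drug sensitivity score from its dose-response curve was obtained by a method described earlier.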
# JHOS2 = test system: JHOS2
# In short: as §1
# FIMM-PDC1 = patient-derived ovarian cancer cells; conditions: genetic perturbation: none (patient-derived cell culture)
# In short: as §1
# FIMM-PDC3 = patient-derived ovarian cancer cells; conditions: genetic perturbation: none (patient-derived cell culture)
# In short: as §1
# FIMM-PDC5 = patient-derived ovarian cancer cells; conditions: genetic perturbation: none (patient-derived cell culture)
# In short: as §1
# FIMM-PDC7 = patient-derived ovarian cancer cells; conditions: genetic perturbation: none (patient-derived cell culture)
# In short: as §1
# FIMM-PDC4 = patient-derived ovarian cancer cells; conditions: genetic perturbation: none (patient-derived cell culture)
# In short: as §1
# Kuramochi = test system: Kuramochi
# In short: as §1
# FIMM-PDC6 = patient-derived ovarian cancer cells; conditions: genetic perturbation: none (patient-derived cell culture)
# In short: as §1
# [1] = genetic perturbation: DOX-induced PTK7 shRNA knockdown
# [2] = genetic perturbation: DOX-induced control shRNA
Structure (SMILES),drug sensitivity score (OVSAHO; [1]),drug sensitivity score (OVSAHO; [2]),drug sensitivity score (JHOS2; [1]),drug sensitivity score (JHOS2; [2]),drug sensitivity score (FIMM-PDC1),drug sensitivity score (FIMM-PDC3),drug sensitivity score (FIMM-PDC5),drug sensitivity score (FIMM-PDC7),drug sensitivity score (FIMM-PDC4),drug sensitivity score (Kuramochi; [1]),drug sensitivity score (Kuramochi; [2]),drug sensitivity score (FIMM-PDC6)
Cc1noc2c1-c1ccccc1C(c1ccc(Cl)cc1)=N[C@H]2CC(N)=O [CPI-0610],7,9.5,5.9,4.2,2.1,3.7,8.7,5.5,3.9,10.5,6.1,3.1
CC(=O)[C@]1(O)Cc2c(O)c3c(c(O)c2[C@@H](O[C@H]2C[C@H](N)[C@H](O)[C@H](C)O2)C1)C(=O)c1ccccc1C3=O [Idarubicin],6.8,4.8,7.2,6.9,5.1,8.1,8.7,8.8,8.2,5.75,6,5.7
CN1CCN(C2CCC(n3cc(-c4ccc(Oc5ccccc5)cc4)c4c(N)ncnc43)CC2)CC1 (configuration not stated),18.9,10.8,9.9,11.5,5.85,14.6,18.4,7,18.6,16.8,12,14.7
CC[C@H](NC(=O)[C@H](C)NC)C(=O)N1C[C@@H](O)C[C@H]1Cc1c(-c2[nH]c3cc(F)ccc3c2C[C@@H]2C[C@H](O)CN2C(=O)[C@H](CC)NC(=O)[C@H](C)NC)[nH]c2cc(F)ccc12 [Birinapant],5.7,2.1,17.4,16.7,6.4,11.7,0.6,< 0,< 0,3.9,3.6,4.1
O=C(O)C(=O)O.[NH-][C@@H]1CCCC[C@H]1[NH-].[Pt+2] [Oxaliplatin],9.9,5.9,8.2,6.2,5.4,17.3,11.2,11.5,5,8.65,5.8,7.8
Nc1ncn([C@@H]2O[C@H](CO)[C@@H](O)[C@H]2O)c(=O)n1 [Azacitidine],3.8,< 0,2.2,3.2,4.15,5.2,6.4,9.3,2.8,1.05,0.6,7.7
Nc1nc2[nH]cnc2c(=S)[nH]1 [Thioguanine],4.9,8.1,1.9,1,5.75,< 0,6.4,4.7,6.6,9.75,7,2.9
CCn1c(=O)c(-c2ccc(Cl)cc2Cl)cc2cnc(Nc3ccc(N4CCNCC4)c(F)c3)nc21 [FRAX486],10.8,4.8,4.5,8,4.5,6.5,14.7,6.5,9.3,3.7,7.6,9.7
Cn1c(Nc2ccc(C(F)(F)F)cc2)nc2cc(Oc3ccnc(-c4ncc(C(F)(F)F)[nH]4)c3)ccc21 [NVP-RAF265],1.5,0.3,< 0,3.8,1.4,6.7,14.6,2.8,2.9,0.1,< 0,1.3
COc1cccc2c1C(=O)c1c(O)c3c(c(O)c1C2=O)C[C@@](O)(/C(CO)=N/NC(=O)CCCCCN1C(=O)C=CC1=O)C[C@@H]3O[C@H]1C[C@H](N)[C@H](O)[C@H](C)O1 [Aldoxorubicin],7.9,5.1,7.9,7.4,5.7,7.4,6.6,8.4,8.5,5.45,4.9,7
CC1(COc2ccc3c(c2)ncn3-c2ccc3cccc(N4CCC(N)CC4)c3n2)COC1 [Crenolanib],3.8,3.7,8.5,5.7,3.55,5.3,8.5,4.7,5,3.65,2.9,4
COc1cc2ncnc(Nc3ccc(F)c(Cl)c3)c2cc1NC(=O)/C=C/CN1CCCCC1 [Dacomitinib],4.8,2.4,< 0,2,3.2,13.1,23.4,14,18.2,2.45,1.6,18
O=C1c2c(O)ccc(O)c2C(=O)c2c(NCCNCCO)ccc(NCCNCCO)c21 [Mitoxantrone],5.1,3.8,5.5,7.6,4.55,6.9,6.6,3.4,5.1,2.7,2.7,4.8
CC[C@@]1(O)C(=O)OCc2c1cc1n(c2=O)Cc2cc3c(CN(C)C)c(O)ccc3nc2-1 [Topotecan],8.7,7.5,10.5,11.5,10.3,12.4,14.4,12.2,7.8,6.85,6.4,12.8
Cc1nc(Nc2ncc(C(=O)Nc3c(C)cccc3Cl)s2)cc(N2CCN(CCO)CC2)n1 [Dasatinib],14.5,15,8.7,10.1,6.05,13.9,17.8,3.2,19,17.9,9.5,10.7
CCN1C(=O)CNc2ncc(-c3ccc(-c4nc[nH]n4)nc3C)nc21 [CC-115],10,7.1,6.4,7.1,5.8,6.6,14,17.4,10,6.85,7.1,9.5

Structure (SMILES),drug sensitivity score (OVSAHO; [1]),drug sensitivity score (OVSAHO; [2]),drug sensitivity score (JHOS2; [1]),drug sensitivity score (JHOS2; [2]),drug sensitivity score (FIMM-PDC1),drug sensitivity score (FIMM-PDC3),drug sensitivity score (FIMM-PDC5),drug sensitivity score (FIMM-PDC7),drug sensitivity score (FIMM-PDC4),drug sensitivity score (Kuramochi; [1]),drug sensitivity score (Kuramochi; [2]),drug sensitivity score (FIMM-PDC6)
CCN(CC)Cc1ccc2cc(COC(=O)Nc3ccc(C(=O)NO)cc3)ccc2c1 [Givinostat],7.6,6.9,6,5.7,5.5,6.4,7.2,2.1,0.9,8.55,4.8,5.8
Cn1nccc1Nc1nccc(-c2ccn([C@H](CO)c3ccc(Cl)c(F)c3)c(=O)c2)n1 [Ravoxertinib],< 0,2.4,1.5,3.6,1.2,2.2,9.2,2.6,7.9,3.45,< 0,6.6
C[C@H]1O[C@@H](O[C@H]2[C@@H](O)C[C@H](O[C@H]3[C@@H](O)C[C@H](O[C@H]4CC[C@@]5(C)[C@H](CC[C@@H]6[C@@H]5C[C@@H](O)[C@]5(C)[C@@H](C7=CC(=O)OC7)CC[C@]65O)C4)O[C@@H]3C)O[C@@H]2C)C[C@H](O)[C@@H]1O [Digoxin],8.6,8,17.2,13,9.4,12,11.9,12.5,14.6,8.45,7.4,16.6
COC[C@H](NC(=O)c1cnc(C)s1)C(=O)N[C@@H](COC)C(=O)N[C@@H](Cc1ccccc1)C(=O)[C@@]1(C)CO1 [Oprozomib],17.3,10.2,23.6,17,19.5,23.6,11.6,19,15.9,12.6,18.3,24.9
CO[C@H](C(=O)[C@@H](O)[C@@H](C)O)[C@@H]1Cc2cc3cc(O[C@H]4C[C@@H](O[C@@H]5C[C@@H](O)[C@H](O)[C@@H](C)O5)[C@H](O)[C@@H](C)O4)c(C)c(O)c3c(O)c2C(=O)[C@H]1O[C@H]1C[C@@H](O[C@@H]2C[C@@H](O)[C@@H](O[C@@H]3C[C@](C)(O)[C@H](O)[C@@H](C)O3)[C@@H](C)O2)[C@H](O)[C@@H](C)O1 [Plicamycin],3.5,14.6,3.7,20.1,15.6,4.3,15.3,< 0,12.6,3.45,12.6,< 0
O=C(CCCCCCC(=O)Nc1ccccc1)NO [Vorinostat],8.3,7.2,3.2,6.1,6,7.9,10.4,6.3,4.9,9.45,4.8,10.1
O=c1[nH]c(=O)n([C@H]2C[C@H](O)[C@@H](CO)O2)cc1F [Floxuridine],4,6.6,< 0,0.6,6.7,3.7,3.5,3.5,0.1,8.25,14.1,2.3
Cc1cc(Nc2cc(N3CCN(C)CC3)nc(Sc3ccc(NC(=O)C4CC4)cc3)n2)n[nH]1 [Tozasertib],3.9,1.9,4.1,4.3,2.9,4.2,6.2,3.7,5.7,4.2,2.4,1.6
O=C(Nc1cccc(NC(=O)c2cccc(O)c2O)c1)c1cccc(O)c1O [MST-312],9.6,6.9,11.6,11.5,2.9,9,3.7,< 0,6.7,6.05,8.6,3.3
Nc1ccn([C@@H]2O[C@H](CO)[C@@H](O)C2(F)F)c(=O)n1 [Gemcitabine],6.1,4,19.5,7.1,5.15,9.4,21.8,13.3,9.8,< 0,0.8,14.2
CCNC(=O)C[C@@H]1N=C(c2ccc(Cl)cc2)c2cc(OC)ccc2-n2c(C)nnc21 [Molibresib],6,9.4,6.8,5.3,1.7,3.5,7.6,6.6,3.3,8.65,4,4.2
CO[C@H]1C[C@@H]2CC[C@@H](C)[C@@](O)(O2)C(=O)C(=O)N2CCCC[C@H]2C(=O)O[C@H]([C@H](C)C[C@@H]2CC[C@@H](OC(=O)C(C)(CO)CO)[C@H](OC)C2)CC(=O)[C@H](C)/C=C(\C)[C@@H](O)[C@@H](OC)C(=O)[C@H](C)C[C@H](C)/C=C/C=C/C=C/1C [Temsirolimus],2.3,6.6,< 0,7.2,2.25,2.8,12.2,4,8.7,4.5,2.7,5.7
C#Cc1cccc(Nc2ncnc3cc4c(cc23)OCCOCCOCCO4)c1 [Icotinib],0.8,0.5,< 0,1,0.8,8.6,12.7,5.3,10.5,0.6,1.6,6.1
CCNC(=O)c1noc(-c2cc(C(C)C)c(O)cc2O)c1-c1ccc(CN2CCOCC2)cc1 [Luminespib],< 0,11.3,15.6,12.9,13.9,14.5,22.8,19,26,13.7,4.1,15.3
C=CC(=O)N1CC/C(=C\c2ccc(F)c([N+](=O)[O-])c2)C(=O)/C(=C/c2ccc(F)c([N+](=O)[O-])c2)C1 [VLX1570],23.2,19.4,25.9,15.3,12.1,18.5,22.3,20.5,16.9,23.4,16.4,19.6
